Results taken from patent publication US10195267B2, “Vaccination strategy” (priority 2013, dated 2019).
Oligonucleotides are written 5' to 3', each unit as a sugar letter and its base; * is a phosphorothioate linkage, no mark a phosphodiester; rarer units and linkages stand in square brackets, end groups in braces. Plain capitals give the bases only. d = 2'-deoxy (DNA)

Columns and labels:
[1] = system: lymphocytic choriomeningitis virus (LCMV); assay type: in vivo, mice
[2] = system: AdHBV (Hepatitis B Virus); test: Chronic AdHBV infection, HBc-DNA vaccination followed by TLR9-L at d12; assay type: in vivo, mice
Text: (a) Mice with chronic AdHBV-infection after 1×10^8 ifu AdHBV-infection. Time course of serum ALT following HBc-DNA vaccination (d0) and TLR9-L or CTRL treatment (d12). OVA-DNA vaccination as control. (n=5 per group). (b-f) At d15 after vaccination, (b) immunohistochemistry for CD11 b and CD8 in the liver as described in (a) at d15 after vaccination; (c) increase of HBc93-100-specific CTLs in spleen and liver detected by dextramer-staining. (n=3 per group), ND, not detectable; (d) IFNγ-producing HBc93-100-specific CTLs isolated from livers of mice after HBc-peptide-specific restimulation ex vivo; (e) total numbers of IFNγ-producing HBc93-100-specific CTLs after peptide-specific restimulation ex vivo per gram liver (n=3, per group); (f) PD-1 expression levels on HBc93-100-specific CTLs directly ex vivo. (g) Serum HBeAg levels from mice as described in (a). (h) Immunohistochemical detection and (i) quantification of HBcore-Ag-positive hepatocytes at d42 after vaccination. HPF, high power field (magnification, 100×). *P<0.05, **P<0.01, ***P<0.001 (paired Student's t-test). Data are representative of three experiments (a, c, d, e, f, g) or two experiments (b, h, i) (a, c, e, i; error bars, s.d.).
C57BL/6J mice were infected with 1×10^8 ifu AdHBV intravenously leading to chronic AdHBV infection, as reported previously (Huang et al. Gastroenterology 2012; 142:1447-50). DNA immunization was performed as described (Huang et al. Gastroenterology 2012; 142:1447-50). After immunization, HBeAg and serum ALT (alanine aminotransferase) activity measured using GPT strips on a REFLOVET™. Plus reader (Roche) were checked at indicated time points. Livers were collected for immunohistochemical analysis. Analysis of CTL number and function ex vivo was done as described previously (Huang et al. Gastroenterology 2012; 142:1447-50).
In this model, therapeutic DNA-vaccination leads to a weak increase in circulating HBV-specific CTLs but fails to control chronic_AdHBV infection. Mice with chronic AdHBV infection were subjected to DNA-vaccination with plasmids coding for the HBV core (HBc) antigen or OVA and received TLR9-L treatment 12 d later.

CD8+ T cells (TCM, TEM) = test: Proliferation of adoptively transferred TCM and TEM in the liver (BrdU incorporation, 7-AAD); assay type: in vivo, mice; conditions: 3 days after intravenous TLR9-ligand
CTLs = test: Local CTL expansion in iMATEs in the liver after systemic TLR9-L application; assay type: in vivo, mice
Text: We discovered that CTL activation by simultaneous stimulation through the TCR, CD28 and IL-12 in vitro, together with systemic application of TLR9-L led to a 50-fold expansion of CTLs locally in the liver. Myeloid cell aggregates, herewith termed iMATEs, which formed in the liver upon TLR9-signaling, facilitate massive CTL expansion, which contributes to anti-viral immunity and overcomes chronic viral infection in mice.

OT-I CTLs = test: Hepatic OT-I CTL expansion and iMATE formation in AdLGO- or AdLG-infected mice
[3] = system: recombinant adenovirus expressing OVA and luciferase (AdLOG); test: Acute adenoviral infection, in vivo bioluminescence as indicator of antiviral CTL activity in the liver
[4] = TLR9-L at d12 after HBcore-DNA vaccination

Substance: 5′-S-TCCATGACGTTCCTGATGCT-3′ (DNA dT*dC*dC*dA*dT*dG*dA*dC*dG*dT*dT*dC*dC*dT*dG*dA*dT*dG*dC*dT) [TLR9-L]
- numbers of LCMV gp33-specific CTLs in the liver ([1]; LCMV-specific CTL transfer (10^6/mouse) together with TLR9-L at d0, d7 and d10): significant increase
- LCMV titers in serum and liver ([1]; LCMV-specific CTL transfer together with TLR9-L injection): dropped to background levels
- numbers of LCMV-specific CTLs ([1]; TLR9-L application alone, d14 after the first transfer): did not lead to significant increases
- iMATE induction in livers ([1]; chronic LCMV-infected mice): can be induced
- serum ALT ([2]; DNA vaccination (HBc or OVA) and TLR9-L 12 d later, most pronounced in HBc-vaccinated mice): transient rise
- serum HBeAg levels ([2]; HBc-DNA vaccination in combination with TLR9-L, after 28 d): significant downregulation
- HBV-infected (HBcore-Ag-positive) hepatocytes ([2]; HBc-DNA vaccination in combination with TLR9-L, d42): elimination
- PD1 expression on recently activated CD69+ HBcore-specific CTLs ([2]; HBc-DNA vaccination plus TLR9-L): lower expression levels
- IFNgamma expression of HBcore-specific CTLs upon antigen-specific restimulation ex vivo [2, 4]: functional and expressed IFNγ
- expansion of HBc-specific CTLs in livers [2, 4]: pronounced expansion
- iMATE formation ([2]; mice with chronic AdHBV infection): induced iMATE formation
- proliferation of adoptively transferred TEM in the liver (CD8+ T cells (TCM, TEM)): marked proliferation
- proliferation of adoptively transferred TCM in the liver (CD8+ T cells (TCM, TEM); cells in S and G2-M phase): strong proliferation
- expansion of CTLs locally in the liver (CTLs; CTLs activated in vitro through TCR, CD28 and IL-12, with systemic TLR9-L): 50 fold
- autoimmunity (CTLs; single TLR9-L application): did not trigger autoimmunity
- numbers of hepatic OT-I CTLs (OT-I CTLs; AdLG-infected mice (no OVA antigen), 1x10^5 activated OT-I CTLs plus TLR9-L): increase
- further expansion of OT-I CTLs (OT-I CTLs; AdLGO-infected TLR9-L-injected mice, compared with AdLG-infected mice given TLR9-L): 7 fold
- formation of iMATEs (OT-I CTLs; upon TLR9-L injection in adenovirus-infected mice): further improved
- in vivo bioluminescence (hepatic viral luciferase expression) ([3]; TLR9-L application alone, mice infected with 10^6 ifu AdLOG): did not significantly reduce
- time to efficient control of hepatic viral luciferase expression ([3]; transfer of 10^4 OT-I CTLs together with TLR9-L, 10^6 ifu AdLOG): ≤ 4 days
